These results are taken from patent US11266715B2, “C3A receptor agonists for use against ischemic brain injury, stroke, traumatic brain injury, spinal cord injury and neurodegenerative disorders” (priority 2016, dated 2022).

Assay [1] concerns WT mice subjected to photothrombotic stroke in the motor cortex. The experiment in a line: Cylinder test (spontaneous forelimb asymmetry) after photothrombotic stroke. In kind it is in vivo, mouse. The procedure:
Cortical photothrombosis was induced using the Rose Bengal method (Lee et al., 2007; Watson et al., 1985) with some modifications. Anesthesia was induced with isoflurane (Forene®, Abbott) in air and oxygen (1:1) initially at 5% and reduced to 2.5% during the surgical procedure. Body temperature was monitored by a rectal probe and maintained at 37° C. using a homeothermic control unit (Harvard Apparatus). Anesthetized mice were placed in a stereotaxic frame, the skull was exposed through a midline scalp incision and Rose Bengal (200 μl, 10 mg/ml solution in sterile saline, Sigma) was injected intraperitoneally. After 5 min, the skull and underlying brain tissue were illuminated for 12 min by a 2 mm diameter cold laser beam (50 mW, 561 nm; Cobolt AB) positioned at AP +0.5 mm and ML −2.7 mm relative to Bregma, targeting the border between left primary somatosensory and motor cortex (Porritt et al., 2012). For intervention experiments targeting motor cortex, stroke was induced as above with the following modifications: Transcranial illumination lasting 15 min was delivered using cold light source (LQ1600, Fiberoptic-Heim AG) equipped with 2 mm wide fiber optic probe and directed to AP +0 and ML −1.5 relative to Bregma. After illumination, the scalp was sutured and mice were placed in a warm cage for 45 min to recover from anesthesia prior to being returned to the home cage. Mice were provided with moist mashed food placed on the floor of the home cage and their weight was monitored daily for 7 days after surgery. There were no significant differences in body weight, body temperature (36.5±0.5° C.), duration of surgery, or post-stroke mortality between cohorts. Each cohort contained an even distribution of mice from the matched strains or treatment groups.
Purified human C3a peptide (Complement Technologies) was diluted in sterile phosphate buffered saline (PBS) to a concentration of 200 nM and a total of 20 μl (10 μl/nostril; corresponding to approximately 1.13 μg/kg body weight) of peptide solution or PBS was given intranasally to awake, hand-restrained mice held in a supine position. Solutions were administered through a pipette tip, drop-wise in 5 μl portions divided by 1 min intervals to allow for absorption. C3a or PBS was given every 24 hours on days 7 to 21 post-stroke for the short-term study or on days 7 to 28 post-stroke for the long-term study. Mice were assigned to C3a or PBS treatment using randomization stratified by body weight to avoid potential confounding effects of body weight on behavioural performance. The investigators carrying out behavioural studies and analysing data were blinded to treatment group. For the assessment of potential systemic anaphylactic response due to intranasal C3a inoculation, body temperature was monitored using a rectal temperature probe (Harvard Apparatus) inserted approximately 4 mm into the rectum of awake mice restrained by the scruff. Baseline temperature was taken before intranasal administration and 5, 15, 30, 45 and 75 min after C3a or PBS administration.
Functional impairment of mice treated intranasally with C3a or vehicle was assessed using a modified cylinder test and a grid walking task to closely evaluate forepaw function. Mice were tested once on each task one week before stroke induction to establish baseline performance. Next, they were tested on days 7, 14 and 21 (short-term study) or days 7, 14, 28, 42 and 56 (long-term study) post-stroke. […]

Assay [2] has as its system mice subjected to neonatal HI injury. The experiment in a line: Histomorphologic evaluation of hippocampus volume after neonatal HI. In kind it is in vivo, mouse. Particulars: WT or C3aR−/− mice, regardless of treatment length, P51-55. As for the experimental part: On P51 (long-term study) or P55 (short-term study), mice were deeply anesthetized with thiopental [Pentothal Sodium (0.01 ml/g body weight), Hospira, Ill., USA)] and transcardially perfused with 0.9% saline, followed by 4% paraformaldehyde (PFA) in 0.1 M PBS. Brains were removed and post-fixed in 4% PFA at 4° C. for 24 h followed by 70% ethanol for 24 h. Tissue was processed using an automatic tissue processor (SAKURA Tissue Tek VIP 3000, Tournai, Belgium) and embedded in paraffin. Brains were cut at room temperature into 8-μm serial coronal sections using a sliding microtome (Microm HM 450, Thermo Scientific, Massachusetts, USA), attached to silane coated slides and dried at RT.
For the histomorphologic evaluation, slides were incubated for 1 h at 65° C. and stained with haematoxylin and eosin. A wide-field microscope (Nikon Eclipse 80i; Nikon Instruments Inc., Tokyo, Japan) equipped with a color camera (Nikon DXM 1200F) was used to obtain images of brain sections 208 μm apart between −1.60 mm and −2.02 mm relative to Bregma; 3 sections/mouse. ImageJ 1.46r software was used to trace around the ipsilesional and contralesional hippocampus and hemisphere. Volumes were calculated according to the Cavalieri's principle, where V=ΣA×P×T (Svedin et al., 2007) and hippocampus volume/hemisphere volume ratio was calculated for each hemisphere.

Regarding “C3a: Purified human C3a peptide (Complement Technologies), C3a receptor agonist, amino acid sequence SEQ ID NO: 1”, in assay [1] (long-term study, day 56, Sidak's test P=0.0687), the “cylinder task average scores on last day of testing, C3a vs PBS” value was “only a trend toward a difference between groups”. Besides, the “cylinder task performance at days 28 and 56 vs day 7” value in assay [1] (long-term study, Dunnett's test P=0.032 and P=0.0019) is given as “sustained functional improvement”. The “mice that improved affected paw usage between day 7 and day 56” value in assay [1] (long-term study, paired t-test P=0.009) is recorded as 8/10. The “right paw use for body support, course between days 7 and 21” value in assay [1] (short-term study, C3a days 7-21, n=10 mice/group) was “continuous improvement”. Also, in assay [1] (short-term study, P=0.062), the “frequency of right paw use on day 21 vs baseline” value is recorded as “did not differ from baseline performance”. Further, in assay [2], the “HI-induced loss of hippocampal tissue” value was “did not affect HI-induced loss of hippocampal tissue”.
